Here are results for 61 molecules from patent US20060252807A1, “Novel ortho-terphenyl inhibitors of p38 kinase and methods of treating inflammatory disorders” (Kalypsys, Inc., priority 2005, published 2006).

T1 sequence (Q16539 whole entry): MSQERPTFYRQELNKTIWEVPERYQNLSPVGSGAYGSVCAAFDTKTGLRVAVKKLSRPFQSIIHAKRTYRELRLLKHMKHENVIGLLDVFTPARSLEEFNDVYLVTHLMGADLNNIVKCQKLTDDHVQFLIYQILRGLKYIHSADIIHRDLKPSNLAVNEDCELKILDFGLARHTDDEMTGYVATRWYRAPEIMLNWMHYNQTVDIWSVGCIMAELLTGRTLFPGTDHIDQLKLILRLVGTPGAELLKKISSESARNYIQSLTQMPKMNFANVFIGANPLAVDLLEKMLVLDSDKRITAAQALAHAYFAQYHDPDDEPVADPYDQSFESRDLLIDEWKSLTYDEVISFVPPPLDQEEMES

The first assay has as its target T1, active p38 alpha enzyme (Upstate Biotechnology) (Homo sapiens, UniProt Q16539).
T1 construct: purchased Upstate Biotechnology
Put plainly: p38α biochemical assay (ATP turnover, luminescent detection, Cambrex PKlight). Conditions: p38α biochemical assay, Table 1 Biological Activity. The method in brief:
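p38α + MapkapK2 (whole protein substrate) + 1.4 uM ATP final; Tris/MOPS buffer with MgCl2, CaCl2, EGTA, EDTA, glycerol, β-ME, BSA; 2 h at 30C; luminescent detection of remaining ATP.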
Turning to `CCCOc1ccc(C(=O)NCc2nc(-c3ccc(F)cc3)c(-c3nc(C(=O)NC(C)C)cs3)o2)cc1` [Example 218], the concentration for half-maximal inhibition (IC50) was more than 1000 nM.

`CC(C)NC(=O)c1csc(-c2c(-c3ccc(F)cc3)noc2CNC(=O)c2ccc(Oc3cccc(O)c3)cc2)n1` [Example 787]: the IC50 was more than 1000 nM.

In turn, `CCCc1ccc(C(=O)NCc2onc(-c3ccc(F)cc3)c2-c2nc(C(=O)NC(C)C)cs2)cc1` [Example 651] showed an IC50 of more than 1000 nM.

Molecule `CC(C)NC(=O)c1csc(-c2oc(CN)nc2-c2ccc(F)cc2)n1` [Example 98] had an IC50 of more than 1000 nM.

Turning to `CC(C)NC(=O)c1csc(-c2oc(CN3CCN(C(=O)c4cc(F)cc(F)c4)CC3)nc2-c2ccc(F)cc2)n1` [Example 397], the concentration for half-maximal inhibition (IC50) was more than 1000 nM.

Take `CC(C)NC(=O)c1csc(-c2c(-c3ccc(F)cc3)noc2CNC(=O)c2ncc[nH]2)n1` [Example 581]: the 50% inhibitory concentration (IC50) is more than 1000 nM.

Molecule `CC(=O)NCc1nc(-c2ccc(F)cc2)c(-c2nc(C(=O)NC(C)C)cs2)[nH]1` [Example 85, 2-|2-(Acetylamino-methyl)-5-(4-fluoro-phenyl)-3H-imidazol-4-yl|-thiazole-4-carboxylic acid isopropylamide] registered an IC50 not above 1000 nM.

In turn, `CC(C)NC(=O)c1csc(-c2oc(CN3CCN(C(=O)c4c(O)ccc5ccccc45)CC3)nc2-c2ccc(F)cc2)n1` [Example 480] showed a concentration for half-maximal inhibition (IC50) of more than 1000 nM.

The molecule `CC(C)NC(=O)c1csc(-c2c(-c3ccc(F)cc3)noc2CNC(=O)C2CC(O)CN2C(=O)OC(C)(C)C)n1` (stereo not shown) [Example 792] yielded a half-maximal inhibitory concentration (IC50) of more than 1000 nM.

The molecule `COc1ccc2cc(C(C)C(=O)NCc3onc(-c4ccc(F)cc4)c3-c3nc(C(=O)NC(C)C)cs3)ccc2c1` (stereo not shown) [Example 788] returned an IC50 of more than 1000 nM.

The molecule `CC(C)NC(=O)c1csc(-c2oc(CN3CCN(C(=O)C4Cc5ccccc5CN4C(=O)OC(C)(C)C)CC3)nc2-c2ccc(F)cc2)n1` (stereo not shown) [Example 570] yielded an IC50 of more than 1000 nM.

Take `CC(C)NC(=O)c1csc(-c2oc(CNC(=O)c3cncc(Br)c3)nc2-c2ccc(F)cc2)n1` [Example 277]: the IC50 is not above 1000 nM.

Consider `CC(C)NC(=O)c1csc(-c2oc(CN3CCN(C(=O)c4ccc(F)cc4)CC3)nc2-c2ccc(F)cc2)n1` [Example 363], for which the half-maximal inhibitory concentration (IC50) is more than 1000 nM.

`CC(C)NC(=O)c1csc(-c2oc(CNC(=O)c3ccccc3C(=O)c3ccc(F)cc3)nc2-c2ccc(F)cc2)n1` [Example 323]: the IC50 is more than 1000 nM.

`CC(C)NC(=O)c1csc(-c2c(-c3ccc(F)cc3)noc2CNC(=O)CC2Cc3ccccc3C2)n1` [Example 678] returned an IC50 of more than 1000 nM.

For the molecule `CC(=O)Oc1ccccc1C(=O)NCc1nc(-c2ccc(F)cc2)c(-c2nc(C(=O)NC(C)C)cs2)o1` [Example 216], the half-maximal inhibitory concentration (IC50) is more than 1000 nM.

For `CC(C)NC(=O)c1csc(-c2oc(CNC(=O)c3cc(O)c(O)c(O)c3)nc2-c2ccc(F)cc2)n1` [Example 190], the IC50 was not above 1000 nM.

For `Cc1cccc(C(=O)NCc2nc(-c3ccc(F)cc3)c(-c3nc(C(=O)NC(C)C)cs3)o2)c1C` [Example 136], the half-inhibitory concentration (IC50) is more than 1000 nM.

`Cc1cc(C)c(C(=O)NCc2onc(-c3ccc(F)cc3)c2-c2nc(C(=O)NC(C)C)cs2)c(C)c1` [Example 650] returned a concentration for half-maximal inhibition (IC50) of more than 1000 nM.

In turn, `COc1ccc(/C=C/C(=O)NCc2nc(-c3ccc(F)cc3)c(-c3nc(C(=O)NC(C)C)cs3)o2)cc1O` [Example 262] displayed an IC50 not above 1000 nM.

Consider `CC(C)NC(=O)c1csc(-c2oc(CNC(=O)c3c(F)cccc3Cl)nc2-c2ccc(F)cc2)n1` [Example 200], for which the IC50 was not above 1000 nM.

The molecule `CC(C)NC(=O)c1csc(-c2oc(CNC(=O)c3cc(O)ccc3[N+](=O)[O-])nc2-c2ccc(F)cc2)n1` [Example 233] gave a 50% inhibitory concentration (IC50) not above 1000 nM.

The assay is the same for the next values; noted with them: p38α kinase; Table 1 Biological Activity.
In turn, `Cc1ccc(CCNCc2onc(-c3ccc(F)cc3)c2-c2nc(C(=O)NC(C)C)cs2)cc1` [Example 1444] showed a half-maximal inhibitory concentration (IC50) of more than 1000 nM.

Consider `CC(C)NC(=O)c1csc(-c2oc(CNCCN3CCOCC3)nc2-c2ccc(F)cc2)n1` [Example 1110], for which the half-inhibitory concentration (IC50) was more than 1000 nM.

As for `CC(C)NC(=O)c1csc(-c2c(-c3ccc(F)cc3)noc2CNCc2ccc(C(C)(C)C)cc2)n1` [Example 1486], the IC50 is more than 1000 nM.

Molecule `CC(C)NC(=O)c1csc(-c2oc(CNCc3ccccc3F)nc2-c2ccc(F)cc2)n1` [Example 1105] gave a half-maximal inhibitory concentration (IC50) of more than 1000 nM.

`CC(C)NC(=O)c1csc(-c2c(-c3ccc(F)cc3)noc2CNc2ccc(F)cc2)n1` [Example 1639]: the IC50 is more than 1000 nM.

Consider `CC(C)NC(=O)c1csc(-c2c(-c3ccc(F)cc3)noc2CN(C)C)n1` [Example 1508], for which the IC50 is more than 1000 nM.

Take `CC(=O)NCC(=O)N1CCC(c2[nH]nc(-c3ccc(F)cc3)c2-c2nc(C(=O)NC(C)C)cs2)CC1` [Example 2177, 2-|5-|1-(2-Acetylamino-acetyl)-piperidin-4-yl|-3-(4-fluoro-phenyl)-1H-pyrazol-4-yl|-thiazole-4-carboxylic acid isopropylamide]: the concentration for half-maximal inhibition (IC50) is not above 1000 nM.

Turning to `CC(C)NC(=O)c1csc(-c2c(-c3ccc(F)cc3)noc2CNCc2ccco2)n1` [Example 1407], the IC50 is more than 1000 nM.

As to `CC(C)NC(=O)c1csc(-c2c(-c3ccc(F)cc3)n[nH]c2C2CCN(C(=O)CCc3cccc(Br)c3)CC2)n1` [Example 1024], the IC50 is more than 1000 nM.

Take `CCOC(=O)CC1C(=O)NCCN1Cc1nc(-c2ccc(F)cc2)c(-c2nc(C(=O)NC(C)C)cs2)o1` (stereo not shown) [Example 1257]: the IC50 is more than 1000 nM.

Molecule `CC(C)NC(=O)c1csc(-c2c(-c3ccc(F)cc3)n[nH]c2C2CCN(C(=O)c3cc(O)c(O)c(O)c3)CC2)n1` [Example 904] came in with an IC50 not above 1000 nM.

`CC1CCCCC1NC(=O)c1csc(-c2c(-c3ccc(F)cc3)n[nH]c2C2CCNCC2)n1` (stereo not shown) [Example 2069]: the IC50 is more than 1000 nM.

`CC(C)NC(=O)c1csc(-c2c(-c3ccc(F)cc3)n[nH]c2C2CCN(C(=O)c3cncc(Br)c3)CC2)n1` [Example 991] had an IC50 not above 1000 nM.

Turning to `CC(C)NC(=O)c1csc(-c2oc(CN3Cc4ccccc4C3)nc2-c2ccc(F)cc2)n1` [Example 1216], the IC50 is more than 1000 nM.

As to `CC(C)NC(=O)c1csc(-c2oc(CNCc3ccncc3)nc2-c2ccc(F)cc2)n1` [Example 1087], the IC50 is more than 1000 nM.

Molecule `CCc1ccc(C(=O)N2CCC(c3[nH]nc(-c4ccc(F)cc4)c3-c3nc(C(=O)NC(C)C)cs3)CC2)cc1` [Example 854] yielded a half-inhibitory concentration (IC50) of more than 1000 nM.

`Cc1nc(-c2ccc(F)cc2)c(-c2nc(C(=O)NC3CC3)cs2)s1` [Example 1709] displayed an IC50 of more than 1000 nM.

`Cc1c(Cl)cccc1NCc1onc(-c2ccc(F)cc2)c1-c1nc(C(=O)NC(C)C)cs1` [Example 1667] came in with an IC50 of more than 1000 nM.

Take `COCCOCn1nc(-c2ccc(F)cc2)c(-c2nc(C=NOC)cs2)c1C` (single isomer, unassigned) [Example 2187, 2-|3-(4-Fluoro-phenyl)-1-(2-methoxy-ethoxymethyl)-5-methyl-1H-pyrazol-4-yl|-thiazole-4-carbaldehyde O-methyl-oxime]: the IC50 is more than 1000 nM.

Molecule `CC(C)NC(=O)c1csc(-c2oc(CNCc3ccc(C(C)C)cc3)nc2-c2ccc(F)cc2)n1` [Example 1141] yielded a 50% inhibitory concentration (IC50) of more than 1000 nM.

The molecule `Cc1nc(-c2ccc(F)cc2)c(-c2nc(C(=O)NCCC(c3ccccc3)c3ccccc3)cs2)s1` [Example 1831] yielded an IC50 of more than 1000 nM.

For the molecule `Cc1ccc(Cl)cc1N1CCN(Cc2nc(-c3ccc(F)cc3)c(-c3nc(C(=O)NC(C)C)cs3)o2)CC1` [Example 1284], the half-inhibitory concentration (IC50) is more than 1000 nM.

With `CC(C)NC(=O)c1csc(-c2oc(CN(C)Cc3ccccc3)nc2-c2ccc(F)cc2)n1` [Example 1217], the IC50 was more than 1000 nM.

As to `Cc1nc(-c2ccc(F)cc2)c(-c2nc(C(=O)NCc3ccccc3)cs2)s1` [Example 1739], the IC50 is not above 1000 nM.

`CC(C)NC(=O)c1csc(-c2oc(CNCC3CCCO3)nc2-c2ccc(F)cc2)n1` (stereo not shown) [Example 1078] displayed an IC50 of more than 1000 nM.

Regarding `COc1ccc(NCc2onc(-c3ccc(F)cc3)c2-c2nc(C(=O)NC(C)C)cs2)cc1` [Example 1648], the IC50 is more than 1000 nM.

In turn, `O=C(O)c1csc(-c2c(-c3ccc(F)cc3)n[nH]c2C2CCNCC2)n1` [Example 2030] displayed an IC50 of more than 1000 nM.

As for `CC(C)NC(=O)c1csc(-c2c(-c3ccc(F)cc3)n[nH]c2C2CCN(C(=O)c3cc4ccccc4o3)CC2)n1` [Example 877], the IC50 was more than 1000 nM.

As to `Cc1ccc(NCc2nc(-c3ccc(F)cc3)c(-c3nc(C(=O)NC(C)C)cs3)o2)cc1F` [Example 1328], the IC50 was more than 1000 nM.

`Cc1nc(-c2ccc(F)cc2)c(-c2nc(C(=O)NCCC#N)cs2)s1` [Example 1713] came in with a half-inhibitory concentration (IC50) of more than 1000 nM.

Turning to `CCOc1ccccc1CNCc1nc(-c2ccc(F)cc2)c(-c2nc(C(=O)NC(C)C)cs2)o1` [Example 1147], the IC50 was more than 1000 nM.

Take `C=CCN(C(=O)c1csc(-c2sc(C)nc2-c2ccc(F)cc2)n1)C1CCCCC1` [Example 1881]: the concentration for half-maximal inhibition (IC50) is more than 1000 nM.

`CCN(Cc1onc(-c2ccc(F)cc2)c1-c1nc(C(=O)NC(C)C)cs1)C(Cc1ccccc1)c1ccco1` (stereo not shown) [Example 1617] came in with an IC50 not above 1000 nM.

In the case of `Cc1cccc(C(C)C)c1NCc1onc(-c2ccc(F)cc2)c1-c1nc(C(=O)NC(C)C)cs1` [Example 1673], the IC50 was more than 1000 nM.

In turn, `Cc1ccccc1OCC(=O)N1CCC(c2[nH]nc(-c3ccc(F)cc3)c2-c2nc(C(=O)NC(C)C)cs2)CC1` [Example 894] came in with a half-inhibitory concentration (IC50) of more than 1000 nM.

Turning to “2-|4-(4-Fluoro-phenyl)-5-oxo-2,5-dihydro-isoxazol-3-yl|-thiazole-4-carboxylic acid isopropyl amide [Example 2181]”, the half-inhibitory concentration (IC50) was more than 1000 nM.

Turning to `COc1ccc(CNC(=O)c2csc(-c3c(-c4ccc(F)cc4)n[nH]c3C3CCNCC3)n2)cc1O` [Example 2150], the half-maximal inhibitory concentration (IC50) was not above 1000 nM.

`CC(C)NC(=O)c1csc(-c2c(-c3ccc(F)cc3)noc2CN2CCC(N(C)C)C2)n1` (stereo not shown) [Example 1534] gave an IC50 of more than 1000 nM.

`CC(C)CCCC(C)NC(=O)c1csc(-c2c(-c3ccc(F)cc3)n[nH]c2C2CCNCC2)n1` (stereo not shown) [Example 2086] returned an IC50 of more than 1000 nM.
